Measured values: patent publication US20040038888A1 (priority 2002, published 2004)

Key:
[1] = test system: CREB phosphorylation; assay: Western blot of phosphorylated CREB, undifferentiated aHNSC; assay type: cell-based, human; settings: 10 nM PACAP
Method: A biopsy from the anterior lateral wall of the lateral ventricle was taken from an adult human patient and enzymatically dissociated in PDD (Papain 2.5 U/ml; Dispase 1 U/ml; Dnase 1 250 U/ml) in DMEM containing 4.5 mg/ml glucose and 37° C. for 20 min. The cells were gently triturated and mixed with three volumes of Human Neural Stem Cell Plating Medium (HNSCPM) (DMEM/F12; 10% fetal bovine serum (FBS)). The cells were pelleted at 250×g for 5 min. The supernatant was subsequently removed and the cells resuspended in HNSCPM, plated out on fibronectin coated culture dishes and incubated at 37° C. in 5% CO2. The following day the expansion of the culture was initiated by change of media to aHNSC culture media (DMEM/F12; BIT 9500; EGF 20 ng/ml; FGF2 20 ng/ml). The aHNSC were split using trypsin and EDTA under standard conditions. FBS was subsequently added to inhibit the reaction and the cells collected by centrifugation at 250×g for 5 min. The aHNSC were replated in aHNSC culture media.
Adult mouse NSC and aHNSC were prepared and cultured as stated in Example 2 (Method A) and Example 1 (Method A). Cultures were exposed to either 10 nM PACAP or EGF (1 nM) and FGF (1 nM) for the times indicated. […] DNA content was detemined by the use of a Pico Green-kit for ds DNA quantitation of cell extracts. […] Phosphorylated CREB protein bands (43 kD) were detected using the ECL-kit (Amersham).

[2] = test system: primary adult NSC; assay: Culture of neurospheres for counting and photographing; assay type: cell-based, mouse; settings: PACAP 100 nM in place of EGF, 7 days, versus control
Method: Anterior lateral wall of the lateral ventricle was dissociated as described in Example 2 (Method A), and the cells resuspended in Neurosphere medium without EGF. The cell suspension was divided into a 24-well plate with triplicates of control (no addition), PACAP treated and EGF (1 nM) treated cells. The final concentration of PACAP was 100 nM. After 7 days the spheres were counted and photographed using a Nikon Eclipse TE300 microscope and Nikon Spot Insight camera.

[3] = test system: primary adult NSC; assay: Self renewal and multipotency assay; assay type: cell-based, mouse; settings: PACAP 100 nM
Method: Anterior lateral wall of the lateral ventricle was dissociated as described in Example 2 (Method A), and the cells resuspended in Neurosphere medium without EGF. The cell suspension was divided into a 24-well plate in triplicate and PACAP added to a final concentration of 100 nM. After 7 days, the neurospheres were split into single cells, as described in Example 1 (Method A), but in the absence of EGF. The cells were replated as single cells, PACAP added to 100 nM and incubated a further 7 days. The cells were passaged one further time, and plated as single cells in Neurosphere medium supplemented with 1% Fetal Calf Serum (Gibco) and 100 nM PACAP (Bachem) onto poly-D-lysine plates. The cells were incubated over-night in which time they adhered to the poly-D-lysine plates and the medium was changed to Neurosphere medium supplemented with 100 nM PACAP38, but absent of Fetal Calf Serum. The cells were cultured for a further 3 days, after which they were washed twice in PBS (Gibco) and fixed for 15 min at room temperature with 4% Formaldehyde (Sigma) and permeabilised for 20 minutes at room temperature in 0,1% Triton X-100 (Sigma) in PBS. After fixation and permeabilisation the cells were labelled with mouse monoclonal anti β-III Tubulin (1:1000 Promega), rabbit anti GFAP (1:500 Sigma), and mouse anti CNPase (1:500 Sigma). Primary antibodies were visualized with anti mouse Texas-Red and anti rabbit FITC (1:500 Vector Laboratories). All antibodies were diluted in PBS with 0,1% Triton X-l00.

[4] = test system: differentiating neural stem cells; assay: Intracellular ATP assay, differentiating adult mouse NSC, adherent culture; assay type: cell-based; settings: varying concentrations, adherent conditions, 3 days, relative to control, dose-dependent
Method: Adult mouse NSC were cultivated from the anterior lateral wall of the lateral ventricle of 5-6 week old mice as described in Example 2 (Method A).
Mouse neurospheres, cultured as described above, from passage 2, were seeded in DMEM/F12 supplemented with B27 and 1% Fetal Calf Serum into a 96-well plate coated with poly-D-lysine as single cells (30000 cells/well) and cultured over-night. The following day the medium was replaced with Neurosphere medium and PACAP added to the concentrations indicated. After 3 days incubation, intracellular ATP was measured using the ATP-SL kit from BioThema, Sweden, according to the manufacturer's instructions.

[5] = test system: differentiating neural stem cells; assay: Thymidine incorporation, differentiating adult mouse NSC, adherent culture; assay type: cell-based; settings: adherent conditions, 3 days, relative to controls
Method: To determine thymidine incorporation into DNA, mouse neurospheres, cultured as described above, from passage 2, were seeded in DMEM/F12 supplemented with B27 and 1% Fetal Calf Serum into a 96-well plate coated with poly-D-lysine as single cells (30000 cells/well) and cultured over-night. The following day the medium was replaced with Neurosphere medium and PACAP added to the concentrations indicated for a further 3 days. 3H-thymidine, 10 uCi/ml, was present the last 24 hours. Cells were harvested on to a filter paper and radioactivity was measured. 3H-thymidine (6,7 Ci/mmol) was from PerkinElmer.

pituitary adenylate cyclase-activating polypeptide [PACAP]
CREB phosphorylation ([1]; 15 min): strong upregulation
CREB phosphorylation ([1]; 240 min): slightly above basal levels
sizes and number of neurospheres [2]: observably greater than that of the control
multiply-passaged neurospheres compared to EGF-treated neurospheres [3]: no relevant differences
self-renewal (secondary and tertiary neurospheres) ([3]; absence of other mitogens): retained their ability to self-renew
multipotentiality (β-III Tubulin, GFAP, CNPase immunoreactivity) ([3]; spontaneous differentiation on poly-D-lysine): retaining the potential of generating all the cells of the CNS
intracellular ATP levels, and hence cell number [4]: statistically significant increase in intracellular ATP levels
incorporation of tritiated thymidine [5]: No significant difference
